Each structure is given as a SMILES string.

The subject of experiment [1] is A1847 parental and CARM1 knockout cells. The experiment is described as follows: Epigenetic targeting small molecule set screen (14-day colony formation). It is filed as cell-based, Human. The conditions noted are these: A1847 parental vs CARM1 knockout; 14 days; normalized to vehicle. The method, then: FIG. 26 illustrates that CARM1-expressing cells are selectively sensitized to EZH2 inhibitors. Equal number of parental control or CARM1 knockout […] cells were plated and treated with each of the 23 individual epigenetic inhibitors for 14 days. The media with the inhibitors was refreshed every 3 days. Cell growth was quantified as integrated density using NIH Image J software. Quantification of the average integrated density graphed as a scatter plot. The X-axis indicates the relative growth of treated CARM1 high parental […] cells compared with DMSO vehicle controls. Y-axis indicates the relative growth of treated CARM1 knockout […] cells compared with DMSO vehicle controls. n=4; and error bars represents SEM. FIG. 27 illustrates a table of EZH2 inhibitors that are selective against CARM1 expression. CARM1-high parental controls and CARM1 knockout […] cells were treated with the indicated concentration of the small molecules in a 14-day colony formation assay. Integrated density for each well was calculated using NIH Image J software. The relative growth of the indicated cells was determined by normalizing to the vehicle control treated cells. n=4 and p-value was calculated using a two-tailed t-test. FIG. 28 illustrates representative images of colonies formed by the cells treated with the indicated inhibitors. GSK126 and UNC1999 representative positive hits from the screen. […] parental and CARM1 knockout cells were plated in 24-well plates and treated with 24 epigenetic compounds. Cell medium was changed every three days with appropriate drug doses for 14 days or until control wells became confluent. Colonies were washed twice with PBS and fixed with 10% methanol and 10% acetic acid in distilled water. Fixed colonies were stained with 0.005% crystal violet. Integrated density was measured using NIH ImageJ software as a surrogate for cell growth.

For experiment [2], the system named is parental and CARM1 knockout A1847 cells, OVCAR10 cells. In words: Apoptosis markers (Annexin V, cleaved caspase 3, cleaved PARP). It is filed as cell-based, Human. The following applies: 10 μM; 7 days; CARM1-dependent manner. Here is the method: FIG. 37 illustrates control parental and CARM1 knockout A1847 cells were treated with 10 μM GSK126 or vehicle for 7 days. Percentage of Annexin V positive apoptotic cells was quantified. *p<0.001 and #p>0.05.
FIG. 38 illustrates levels of cleaved caspase 3 and cleaved PARP in control parental and CARM1 knockout A1847 cells treated with 10 μM GSK126 for 7 days. Expression of β-actin was used as a loading control.
FIG. 39A illustrates the expression of apoptosis markers cleaved in CARM1 high OVCAR10 cells as a result of treatment with GSK126. CARM1 high OVCAR10 cells were treated with 10 μM GSK 126 or vehicle control for 7 days. The expression of apoptosis markers cleaved caspase 3 and cleaved PARP were determined by immunoblot. Expression of β-actin was used as a loading control.
Phosphatidylserine externalization was detected using an Annexin V staining kit (Millipore) following the manufacturer's instructions. Annexin V-positive cells were detected using the Guava System and analyzed with the Guava Nexin software Module (Millipore).

Experiment [3] relates to CARM1-expressing A1847 tumors. In words: Subcutaneous xenograft, CARM1-expressing A1847 cells. It is filed as in vivo, NSG mice. The following applies: 50 mg/kg daily i.p., three weeks. Here is the method:
FIGS. 73 to 75 illustrate that EZH2 inhibition suppressed the growth of CARM1-expressing ovarian tumors in vivo. FIG. 73 illustrates images of tumors dissected from control or GSK126 treated mice. CARM1-high A1847 cells were injected subcutaneously into immunocompromised NSG mice (n=5/group). Tumors were allowed to establish for one week before the mice were randomized into two different treatment groups. Mice were treated with vehicle control or GSK126 (50 mg/kg daily) for an additional three weeks. At the end of treatment, the mice were euthanized. Bar=1 cm. FIG. 74 illustrates a difference in tumor size measured as a surrogate for tumor burden from the control and GSK 126 treated mice at the indicated time point. FIG. 75 illustrates a difference in tumor weight measured as a surrogate for tumor burden from control and GSK 126-treated mice. The mice were injected with CARM1 knockout A1847 cells.
The protocols were approved by the Institutional Animal Care and Use Committee (IACUC). 5×10^6 control A1847 or A1847 CARM1 knockout cells were unilaterally injected subcutaneously into 6-8-week old female immunocompromised NSG mice (n=5 per group). […] Tumor size was measured every 3 days for 3 weeks. At end of the experiments, tumors were surgically dissected and tumor burden was calculated based on tumor weight.

Experiment [4] concerns CARM1-expressing A1847 tumors. The experiment is described as follows: Intrabursal orthotopic xenograft, CARM1-expressing A1847 cells. It is filed as in vivo, NSG mice. The conditions noted are these: 50 mg/kg daily i.p., three weeks. Here is the method: FIG. 76 illustrates images of reproductive tracks with tumors from control or GSK126 treated mice. CARM1-high A1847 ovarian cancer cells were unilaterally injected into the ovarian bursa sac of immunocompromised mice (n=5/group). Tumors were allowed to establish for one week before the mice were randomized into two different treatment groups. Mice were treated with vehicle control or GSK126 (50 mg/kg daily) for an additional three weeks. At the end of treatment, the mice were euthanized.
FIG. 77 illustrates tumor weights for the tumors described in FIG. 76. Tumor weight was measured as a surrogate for tumor burden from the control and GSK126 treated mice.
FIG. 78 illustrates the percent survival for the animals treated in FIG. 76. After stopping treatment, the mice from the indicated groups were followed for survival. […] P-value was calculated by log-rank test.
The protocols were approved by the Institutional Animal Care and Use Committee (IACUC). For in vivo experiments, the sample size of 5 mice per group was determined based on the data shown from in vitro experiments. […] At the end of the experiments, tumors were surgically dissected and tumor burden was calculated based on tumor weight. For survival experiments, after stopping the treatment, the mice were followed for mortality or when the tumor burden reached 10% of body weight as determined by The Wistar Institute IACUC guideline.

Experiment [5] relates to tumors formed by CARM1 knockout cells. In words: IHC and qRT-PCR of dissected CARM1 knockout tumors. It is filed as in vivo, NSG mice. The method, then:
FIGS. 82 to 84 illustrate immunohistochemical analysis for serial sections of tumors dissected from mice injected with CARM1 knockout A1847 cells. Serial sections of tumors dissected from the indicated treatment groups described in FIGS. 73 to 75 were subjected to immunohistochemical staining for H3K27Me3, E7H2, cleaved caspase 3, and Ki67 (FIG. 82). Scale bar=50 μm. Histological score (H-score) of the indicated proteins was calculated for 3 separate fields from 5 tumors from 5 individual mice from each of the indicated groups (FIG. 83). Expression of the indicated EZH2/BAF155 target genes was determined by qRT-PCR in the tumors dissected from the indicated treatment groups (FIG. 84).

Turning to `CC[C@H](C)n1cc(C)c2c(C(=O)NCc3c(C)cc(C)[nH]c3=O)cc(-c3ccc(N4CCNCC4)nc3)cc21` [GSK126, (S)-1-(sec-butyl)-N-((4,6-dimethyl-2-oxo-1,2-dihydropyridin-3-yl)methyl)-3-methyl-6-(6-(piperazin-1-yl)pyridin-3-yl)-1H-indole-4-carboxamide], the “selective growth suppression of CARM1-expressing versus CARM1 KO cells” value in experiment [1] is listed as “showed selectivity against CARM1-expressing cells”. Further, in experiment [2], the markers of apoptosis result was “markers of apoptosis were induced”. Moreover, the tumor growth result in experiment [3] is “significantly inhibited the growth of CARM1-expressing tumors”. Also, the “tumor growth (tumor weight)” value in experiment [4] was “significantly inhibited”. Also, in experiment [5] (IHC), the “expression of Ki67” value is “did not affect the expression of Ki67 and cleaved caspase 3”; the “expression of cleaved caspase 3” value is “did not affect the expression of Ki67 and cleaved caspase 3”. Besides, the “expression of EZH2/BAF155 target genes” value in experiment [5] (qRT-PCR) was “did not increase the expression”.
